Laboratory results published in ChEMBL document CHEMBL1154345, “Discovery of tricyclic 5,6-dihydro-1H-pyridin-2-ones as novel, potent, and orally bioavailable inhibitors of HCV NS5B polymerase” (Bioorg Med Chem Lett, 2009).

Experiments:
in vitro [1] = settings: human, t1/2
in vitro [2] = settings: human
Description: Metabolic stability in human liver microsomes assessed as compound remaining after 60 mins at 1 uM

Hepatitis C virus [3] = assay: microbe, parasite or virus in culture; assay type: functional, organism-based, Hepacivirus hominis, subtype 1a, Huh-lunet; settings: Hepatitis C virus, subtype 1a, Huh-lunet, 96 h
Description: Antiviral activity against HCV-1a infected in human Huh-lunet cells after 4 days by luciferase based replicon assay

Hepatitis C virus [4] = assay: microbe, parasite or virus in culture; assay type: functional, organism-based, Hepacivirus hominis, genotype 1b, Huh-luc/neo-ET; settings: Hepatitis C virus, genotype 1b, Huh-luc/neo-ET, 72 h
Description: Antiviral activity against HCV-1b infected human Huh-luc/neo-ET replicon cells after 72 hrs by luciferase based replicon assay

[5] = Cytotoxicity against human HuH7 cells assessed as GAPDH release; assay type: cell-based, Huh-7
Cynomolgus monkey [6] = settings: in vivo, iv, 1 mg/kg
[7] = Oral bioavailability in cynomolgus monkey at 1 mg/kg; assay type: ADME, organism-based, Macaca fascicularis; settings: in vivo
[8] = Clearance in cynomolgus monkey at 1 mg/kg, iv; assay type: ADME, organism-based, Macaca fascicularis; parameters: dose 1 mg/kg, route intravenous; settings: in vivo
Cynomolgus monkey [9] = settings: in vivo, po, 1 mg/kg
in vitro [10] = settings: rhesus monkey
Description: Metabolic stability in monkey liver microsomes assessed as half life at 5 uM

in vitro [11] = settings: rhesus monkey, microsomes, Stability
Description: Metabolic stability in monkey liver microsomes assessed as compound remaining after 60 mins at 5 uM

physchem = settings: aqueous medium, pH 7.5
Description: Aqueous solubility at pH 7.5

Compound	half-life at 1 µM (in vitro [1]; microsomes) [h]	remaining at 1 h, 1 µM (in vitro [2]; microsomes) [%]	EC50 (Hepatitis C virus [3]) [nM]	EC50 (Hepatitis C virus [4]) [nM]	half-life at 1 µM (in vitro [1]; liver microsomes) [h]	remaining at 1 h, 1 µM (in vitro [2]; liver microsomes) [%]	also measured
CS(=O)(=O)Nc1ccc2c(c1)S(=O)(=O)N=C(C1=C(O)[C@@H]3[C@@H]4CC[C@@H](C4)[C@@H]3N(Cc3ccc(F)cc3)C1=O)N2	> 1	85	65	7			CC50 [5]: > 1000 nM
COc1cc(CN2C(=O)C(C3=NS(=O)(=O)c4cc(NS(C)(=O)=O)ccc4N3)=C(O)[C@@H]3C4CCC(CC4)[C@@H]32)ccc1F			21	2	> 1	67	
CS(=O)(=O)Nc1ccc2c(c1)S(=O)(=O)N=C(C1=C(O)[C@@H]3C4CCC(CC4)[C@@H]3N(Cc3ccc(F)c(F)c3F)C1=O)N2			150	8	> 1	100	
CS(=O)(=O)Nc1ccc2c(c1)S(=O)(=O)N=C(C1=C(O)[C@@H]3C4CCC(CC4)[C@@H]3N(Cc3ccc(F)c(F)c3)C1=O)N2			23	2	> 1	81	
CS(=O)(=O)Nc1ccc2c(c1)S(=O)(=O)N=C(C1=C(O)[C@@H]3C4CCC(CC4)[C@@H]3N(Cc3ccc(F)c(Cl)c3)C1=O)N2			19	2	> 1	100	
CS(=O)(=O)Nc1ccc2c(c1)S(=O)(=O)N=C(C1=C(O)[C@@H]3C4CCC(CC4)[C@@H]3N(Cc3ccc(F)cc3F)C1=O)N2			280	2	> 1	100	
Cc1cc(CN2C(=O)C(C3=NS(=O)(=O)c4cc(NS(C)(=O)=O)ccc4N3)=C(O)[C@@H]3C4CCC(CC4)[C@@H]32)ccc1F			16	2	> 1	81	
CS(=O)(=O)Nc1ccc2c(c1)S(=O)(=O)N=C(C1=C(O)[C@@H]3C4CCC(CC4)[C@@H]3N(Cc3ccc(F)cc3Cl)C1=O)N2			25	1	> 1	100	
COc1cccc(CN2C(=O)C(C3=NS(=O)(=O)c4cc(NS(C)(=O)=O)ccc4N3)=C(O)[C@@H]3C4CCC(CC4)[C@@H]32)c1			270	5	> 1	50	
CS(=O)(=O)Nc1ccc2c(c1)S(=O)(=O)N=C(C1=C(O)[C@@H]3C4CCC(CC4)[C@@H]3N(Cc3ccccc3Cl)C1=O)N2			660	17	> 1	100	
CS(=O)(=O)Nc1ccc2c(c1)S(=O)(=O)N=C(C1=C(O)[C@@H]3C4CCC(CC4)[C@@H]3N(Cc3cccc(F)c3)C1=O)N2	> 1	88	98	4			
CS(=O)(=O)Nc1ccc2c(c1)S(=O)(=O)N=C(C1=C(O)[C@@H]3C4CCC(CC4)[C@@H]3N(Cc3ccc(Cl)cc3)C1=O)N2			250	31	> 1	100	
CS(=O)(=O)Nc1ccc2c(c1)S(=O)(=O)N=C(C1=C(O)[C@@H]3[C@@H]4CC[C@@H](C4)[C@@H]3N(Cc3ccc(F)c(Cl)c3)C1=O)N2			200	4	> 1	100	
Cc1cc(CN2C(=O)C(C3=Nc4ccc(NS(C)(=O)=O)cc4S(=O)(=O)N3)=C(O)[C@@H]3[C@@H]4CC[C@@H](C4)[C@@H]32)ccc1F			87	9	> 1	65	
CS(=O)(=O)Nc1ccc2c(c1)S(=O)(=O)NC(C1=C(O)[C@@H]3[C@@H]4CC[C@@H](C4)[C@@H]3N(Cc3ccc(F)c(F)c3)C1=O)=N2			110	13	> 1	97	
CS(=O)(=O)Nc1ccc2c(c1)S(=O)(=O)NC(C1=C(O)[C@@H]3[C@@H]4CC[C@@H](C4)[C@@H]3N(Cc3ccccc3)C1=O)=N2			340	10	> 1	90	
CS(=O)(=O)Nc1ccc2c(c1)S(=O)(=O)NC(C1=C(O)[C@@H]3[C@@H]4CC[C@@H](C4)[C@@H]3N(Cc3cccc(F)c3)C1=O)=N2	> 1	96	290	22			
CS(=O)(=O)Nc1ccc2c(c1)S(=O)(=O)N=C(C1=C(O)[C@@H]3[C@H]4CC[C@H](C4)[C@@H]3N(Cc3ccc(F)c(F)c3F)C1=O)N2			260	15	> 1	100	

Compound	half-life at 1 µM (in vitro [1]; microsomes) [h]	remaining at 1 h, 1 µM (in vitro [2]; microsomes) [%]	EC50 (Hepatitis C virus [3]) [nM]	EC50 (Hepatitis C virus [4]) [nM]	half-life at 1 µM (in vitro [1]; liver microsomes) [h]	remaining at 1 h, 1 µM (in vitro [2]; liver microsomes) [%]	also measured
CS(=O)(=O)Nc1ccc2c(c1)S(=O)(=O)N=C(C1=C(O)[C@@H]3[C@H]4CC[C@H](C4)[C@@H]3N(Cc3ccc(F)c(Cl)c3)C1=O)N2			32	10	> 1	87	
COc1cc(CN2C(=O)C(C3=NS(=O)(=O)c4cc(NS(C)(=O)=O)ccc4N3)=C(O)[C@@H]3[C@H]4CC[C@H](C4)[C@@H]32)ccc1F	> 1	66	46	10			
CS(=O)(=O)Nc1ccc2c(c1)S(=O)(=O)N=C(C1=C(O)[C@@H]3[C@H]4CC[C@H](C4)[C@@H]3N(Cc3ccc(F)cc3F)C1=O)N2	> 1	100	290	10			
Cc1cc(CN2C(=O)C(C3=NS(=O)(=O)c4cc(NS(C)(=O)=O)ccc4N3)=C(O)[C@@H]3[C@H]4CC[C@H](C4)[C@@H]32)ccc1F			34	6	> 1	70	AUC (Cynomolgus monkey [6]): 25000 ng·h/mL; bioavailability [7]: 35%; clearance [8]: 0.67 mL/min/kg; AUC (Cynomolgus monkey [9]): 8780 ng·h/mL; half-life at 5 µM (in vitro [10]; liver microsomes): 0.817 h
CS(=O)(=O)Nc1ccc2c(c1)S(=O)(=O)N=C(C1=C(O)[C@@H]3[C@H]4CC[C@H](C4)[C@@H]3N(Cc3ccc(F)cc3Cl)C1=O)N2	> 1	98	33	5			
CS(=O)(=O)Nc1ccc2c(c1)S(=O)(=O)N=C(C1=C(O)[C@@H]3[C@H]4CC[C@H](C4)[C@@H]3N(Cc3cccc(F)c3)C1=O)N2	> 1	85	330	10			
CS(=O)(=O)Nc1ccc2c(c1)S(=O)(=O)N=C(C1=C(O)[C@@H]3[C@H]4CC[C@H](C4)[C@@H]3N(Cc3ccc(Cl)cc3)C1=O)N2	> 1	84	760	203			
CS(=O)(=O)Nc1ccc2c(c1)S(=O)(=O)N=C(C1=C(O)[C@@H]3C4CCC(CC4)[C@@H]3N(Cc3ccc(F)cc3)C1=O)N2	> 1	86	6	0.8			CC50 [5]: > 1000 nM
CS(=O)(=O)Nc1ccc2c(c1)S(=O)(=O)N=C(C1=C(O)[C@@H]3C4CCC(CC4)[C@@H]3N(CC3CCCCC3)C1=O)N2	0.833		55	11			
CS(=O)(=O)Nc1ccc2c(c1)S(=O)(=O)N=C(C1=C(O)[C@@H]3C4CCC(CC4)[C@@H]3N(CC(F)(F)F)C1=O)N2	0.1		60	4			
CS(=O)(=O)Nc1ccc2c(c1)S(=O)(=O)N=C(C1=C(O)[C@@H]3C4CCC(CC4)[C@@H]3N(Cc3cccs3)C1=O)N2			120	6	0.85		
CS(=O)(=O)Nc1ccc2c(c1)S(=O)(=O)N=C(C1=C(O)[C@@H]3[C@H]4CC[C@H](C4)[C@@H]3N(Cc3cccs3)C1=O)N2	> 1	81	66	18			
CS(=O)(=O)Nc1ccc2c(c1)S(=O)(=O)N=C(C1=C(O)[C@@H]3[C@@H]4CC[C@@H](C4)[C@@H]3N(Cc3cccs3)C1=O)N2	> 1	63	820	27			
CS(=O)(=O)Nc1ccc2c(c1)S(=O)(=O)N=C(C1=C(O)[C@@H]3C4CCC(CC4)[C@@H]3N(Cc3ccccc3)C1=O)N2			55	1	> 1	82	
CS(=O)(=O)Nc1ccc2c(c1)S(=O)(=O)NC(C1=C(O)[C@@H]3CCC[C@@H]3N(Cc3ccc(F)cc3)C1=O)=N2	> 1	85	550	23			remaining at 1 h, 5 µM (in vitro [11]): 100%; solubility (physchem): > 100 µM; half-life at 5 µM (in vitro [10]; microsomes): > 1 h; CC50 [5]: > 100000 nM
CS(=O)(=O)Nc1ccc2c(c1)S(=O)(=O)N=C(C1=C(O)C3CC=CCC3N(Cc3ccc(F)cc3)C1=O)N2 (racemic)			81	7	> 1	87	CC50 [5]: > 1000 nM
CS(=O)(=O)Nc1ccc2c(c1)S(=O)(=O)N=C(C1=C(O)[C@@H]3[C@H]4CC[C@H](C4)[C@@H]3N(Cc3ccc(F)cc3)C1=O)N2 [SETROBUVIR]	> 1	75	18	3			remaining at 1 h, 5 µM (in vitro [11]): 98%; AUC (Cynomolgus monkey [6]): 94900 ng·h/mL; bioavailability [7]: 52%; clearance [8]: 0.18 mL/min/kg; AUC (Cynomolgus monkey [9]): 49400 ng·h/mL; half-life at 5 µM (in vitro [10]; microsomes): > 1 h; CC50 [5]: > 100000 nM
